{"source": "patent US20240076347A1", "about": "“METHODS FOR PREVENTING FUNGAL INFECTIONS” (Cidara Therapeutics, Inc., priority 2016, published 2024)", "key": {"[1]": {"experiment": "Clinical pharmacokinetics in healthy adults (Phase 1)", "type": "in vivo, human", "settings": "for average 24 h AUC (free drug) over a 7 day period / free drug AUC0-168: human", "description": "The in vitro activity of CD101 was previously evaluated as part of the SENTRY international surveillance program using CLSI broth microdilution methodology (M38-A2, M27-A3; Pfaller, et al 2017). […] These susceptibility data were then compared graphically to CD101 plasma concentrations from studies in healthy adults, adjusted for plasma protein binding. Nonclinical efficacy in a murine model of Pneumocystis pneumonia were also considered to evaluate CD101 doses for clinical investigation of antifungal prophylaxis."}, "[2]": {"tested_on": "Aspergillus fumigatus ATCC", "experiment": "Prophylaxis, neutropenic ICR mouse aspergillosis model, survival", "type": "in vivo", "settings": "14 days", "method": "Aspergillosis model: ICR mice (6/group) were rendered neutropenic by cyclophosphamide on Day −3 (6 mg/mouse), Day +1, and Day +4 (2 mg/mouse). Challenge with Aspergillus fumigatus ATCC via IV (100 μL, […] CFU/mouse) occurred on Day 0. Prior to challenge, mice were given one SC dose (5, 10 or 20 mg/kg) of CD101 on Day −5, Day −3, or Day −1. Survival was monitored for 14 days."}, "C. glabrata": {"tested_on": "C. glabrata", "experiment": "Neutropenic murine disseminated candidiasis model, PK/PD target determination", "type": "in vivo, Candida glabrata", "method": "Infection model. A neutropenic, murine, disseminated candidiasis model was used for the treatment studies. The mice were rendered neutropenic (polymorphonuclear cell count, <100/mm3) by injecting 150 mg/kg of cyclophosphamide (Mead Johnson Pharmaceuticals, Evansville, IN) subcutaneously 4 days before infection, 100 mg/kg of cyclophosphamide 1 day before infection, and additional cyclophosphamide doses (100 mg/kg) on Day 2 and Day 4 after infection to ensure neutropenia throughout the 168 h (7 d) study period. Three mice were included in each treatment and control group.\nThe organisms were subcultured on SDA plates 24 h prior to infection. The inoculum was prepared by placing 3 to 5 colonies into 5 ml of sterile pyrogen-free 0.15 M NaCl warmed to 35° C. The final inoculum was adjusted to a 0.6 transmittance at 530 nm. The fungal count of the inoculum determined by viable counts on SDA was 6.1±0.2 log10 CFU/ml.\nDisseminated infection with the Candida strains was achieved by injection of 0.1 ml of the inoculum via the lateral tail vein 2 h prior to the start of antifungal therapy. At the end of the study period, the animals were sacrificed by CO2 asphyxiation. The kidneys of each mouse were aseptically removed and placed in 0.15 M NaCl at 4° C. The kidneys were homogenized and serially diluted 1:10, and the aliquots were plated onto SDA for viable fungal colony counts after incubation for 24 h at 35° C. The lower limit of detection was 100 CFU/ml. The results are expressed as the mean CFU/kidney for three mice.\nTreatment efficacy and pharmacodynamic target determination of CD101. Neutropenic mice were infected with one of 10 Candida strains as described above. […] Five dose levels that varied from 0.25 to 64 mg/kg were administered once in a 0.2-ml volume by IP route for the 168 h study period. Due to enhanced effect against single isolate, additional studies at 0.0156 and 0.0625 mg/kg was examined for C. glabrata 5592. Groups of three mice were used for each dosing regimen and control group. At the end of the treatment period (168 h), the mice were euthanized, and their kidneys were immediately processed for CFU determination as described above.\nData analysis. A sigmoid dose-effect (Hill) model was used to measure the in vivo potency of CD101. The efficacy endpoints included the dose level required to produce a 24 h net static effect (no change in organism burden compared to that at the start of therapy) and the dose required to achieve a 1-log10 reduction in colony counts (relative to the burden at the start of therapy), when achieved. The maximum response (Emax) was measured as the difference in the number of CFU/kidney relative to that of the untreated control animals. The doses associated with the stasis and 1-log10 endpoint for each strain was calculated using the equation: log10 D=[log10 (E/(Emax−E))/N]+log10 ED50, where D is the drug dose, E is the control growth in untreated animals, Emax is the maximal effect, Nis the slope of the dose-response relationship, and ED50 is the dose needed to achieve 50% of the maximal effect. The associated AUC/MIC targets were then calculated for each strain. […] The calculations were performed using both total and free drug concentrations. The coefficient of determination (R^2) was used to estimate the variance that might be due to regression with the PK/PD index. Kruskal-Wallis one-way analysis of variance (ANOVA) was used to determine if the differences in PK/PD targets were significant between the species."}, "[3]": {"tested_on": "A. fumigatus clinical isolates", "settings": "SENTRY surveillance (Pfaller, et al 2017); cited from earlier work"}, "[4]": {"settings": "Median of 3 C. glabrata strains"}}, "note": "Numbered stars: 1 amine (or outer) side, 2 acyl side, 3 side chain; on linkers, the order of the positions; unused ones are H or OH. Bridge positions count the residues as written; N and C are the ends. Square brackets hold non-standard residues; d marks the D form. Peptide text beside a SMILES is read from it. * marks the point of attachment. ξ: configuration not given here. Orn(4R-OH,5R-OCH2CH2NMe3+) = C[N+](C)(C)CCO[C@@H](N[*:3])[C@H](O)C[C@H](N[*:1])C(=O)[*:2]; pTerphenylCO(4''-OnC5H11) = CCCCCOc1ccc(-c2ccc(-c3ccc(C(=O)*)cc3)cc2)cc1; hTyr(3S-OH,4S-OH) = N[C@H](C(=O)O)[C@H](O)[C@@H](O)c1ccc(O)cc1; X1 = C[C@H]1CN([*:1])C(C(=O)[*:2])C1O; Hyp = O=C(O)[C@@H]1C[C@@H](O)CN1; ξT = CC(O)C(N)C(=O)O"}
{"smiles": "CCCCCOc1ccc(-c2ccc(-c3ccc(C(=O)N[C@H]4C[C@@H](O)[C@@H](OCC[N+](C)(C)C)NC(=O)C5C(O)[C@@H](C)CN5C(=O)[C@H]([C@@H](C)O)NC(=O)[C@H]([C@H](O)[C@@H](O)c5ccc(O)cc5)NC(=O)[C@@H]5C[C@@H](O)CN5C(=O)C(C(C)O)NC4=O)cc3)cc2)cc1", "note": "(stereo partly drawn) [CD101] ({pTerphenylCO(4''-OnC5H11)}-[Orn(4R-OH,5R-OCH2CH2NMe3+)][ξT][Hyp][hTyr(3S-OH,4S-OH)]T[X1]; lactam 1-C)", "values": [{"measurement": "plasma concentrations relative to MEC90", "setting": "[1]; 400 mg and 200 mg", "result": "above the MEC90 for A. fumigatus for 7 days"}, {"measurement": "mean unbound plasma concentrations relative to MIC90", "setting": "[1]; Phase 1 subjects, single dose of 400 mg", "result": "above the MIC90 for C. albicans for seven days"}, {"measurement": "average 24 h AUC (free drug) over a 7 day period", "setting": "[1]; 200 mg dose", "result": "~2200", "unit": "ng·h/mL"}, {"measurement": "free drug AUC0-168", "setting": "[1]; 200 mg dose", "result": 15400, "unit": "ng·h/mL"}, {"measurement": "average 24 h AUC (free drug) over a 7 day period", "setting": "[1]; 400 mg dose", "result": "approximately 4.3 mg*h/L"}, {"measurement": "free drug AUC0-168", "setting": "[1]; 400 mg dose", "result": 30200, "unit": "ng·h/mL"}, {"measurement": "survival", "setting": "[2]; 5 mg/kg SC", "result": "increased survival when prophylaxis was given closer to challenge"}, {"measurement": "increases in survival compared with vehicle", "setting": "[2]; 5, 10 and 20 mg/kg SC on Day −5, −3 or −1", "result": "> 50", "unit": "%"}, {"measurement": "survival", "setting": "[2]; 10 and 20 mg/kg SC, any prophylaxis day", "result": "All animals in the 10 and 20 mg/kg groups survived"}, {"measurement": "1 log kill 24 h Ave Free drug AUC/MIC", "setting": "C. glabrata; 5592", "result": 0.36}, {"measurement": "1 log kill free drug AUC0-168 h/MIC", "setting": "C. glabrata; 5592", "result": 2.54}, {"measurement": "1 log kill total drug AUC0-168 h/MIC", "setting": "C. glabrata; 5592", "result": 317.50}, {"measurement": "Stasis 24 h Ave free drug AUC/MIC", "setting": "C. glabrata; 5592", "result": 0.05}, {"measurement": "Stasis free drug AUC0-168 h/MIC", "setting": "C. glabrata; 5592", "result": 0.35}, {"measurement": "Stasis total drug AUC0-168 h/MIC", "setting": "C. glabrata; 5592", "result": 43.16}, {"measurement": "1 log kill dose", "setting": "C. glabrata; 5592, single IP dose, 168 h", "result": 0.43, "unit": "mg/kg"}, {"measurement": "Static dose", "setting": "C. glabrata; 5592, single IP dose, 168 h", "result": 0.06, "unit": "mg/kg"}, {"measurement": "1 log kill 24 h Ave Free drug AUC/MIC", "setting": "C. glabrata; 10956", "result": 1.20}, {"measurement": "1 log kill free drug AUC0-168 h/MIC", "setting": "C. glabrata; 10956", "result": 8.42}, {"measurement": "1 log kill total drug AUC0-168 h/MIC", "setting": "C. glabrata; 10956", "result": 1052.22}, {"measurement": "Stasis 24 h Ave free drug AUC/MIC", "setting": "C. glabrata; 10956", "result": 0.48}, {"measurement": "Stasis free drug AUC0-168 h/MIC", "setting": "C. glabrata; 10956", "result": 3.35}, {"measurement": "Stasis total drug AUC0-168 h/MIC", "setting": "C. glabrata; 10956", "result": 418.68}, {"measurement": "1 log kill dose", "setting": "C. glabrata; 10956, single IP dose, 168 h", "result": 17.25, "unit": "mg/kg"}, {"measurement": "Static dose", "setting": "C. glabrata; 10956, single IP dose, 168 h", "result": 6.29, "unit": "mg/kg"}, {"measurement": "1 log kill 24 h Ave Free drug AUC/MIC", "setting": "C. glabrata; 35315", "result": 0.42}, {"measurement": "1 log kill free drug AUC0-168 h/MIC", "setting": "C. glabrata; 35315", "result": 2.94}, {"measurement": "1 log kill total drug AUC0-168 h/MIC", "setting": "C. glabrata; 35315", "result": 367.06}, {"measurement": "Stasis 24 h Ave free drug AUC/MIC", "setting": "C. glabrata; 35315", "result": 0.07}, {"measurement": "Stasis free drug AUC0-168 h/MIC", "setting": "C. glabrata; 35315", "result": 0.50}, {"measurement": "Stasis total drug AUC0-168 h/MIC", "setting": "C. glabrata; 35315", "result": 62.50}, {"measurement": "1 log kill dose", "setting": "C. glabrata; 35315, single IP dose, 168 h", "result": 2.39, "unit": "mg/kg"}, {"measurement": "Static dose", "setting": "C. glabrata; 35315, single IP dose, 168 h", "result": 0.34, "unit": "mg/kg"}, {"measurement": "1 log kill 24 h Ave Free drug AUC/MIC", "setting": "C. glabrata; Mean of 3 C. glabrata strains", "result": 0.66}, {"measurement": "1 log kill dose", "setting": "C. glabrata; Mean of 3 C. glabrata strains", "result": 6.69, "unit": "mg/kg"}, {"measurement": "1 log kill free drug AUC0-168 h/MIC", "setting": "C. glabrata; Mean of 3 C. glabrata strains", "result": 4.63}, {"measurement": "1 log kill total drug AUC0-168 h/MIC", "setting": "C. glabrata; Mean of 3 C. glabrata strains", "result": 578.93}, {"measurement": "Stasis 24 h Ave free drug AUC/MIC", "setting": "C. glabrata; Mean of 3 C. glabrata strains", "result": 0.20}, {"measurement": "Stasis free drug AUC0-168 h/MIC", "setting": "C. glabrata; Mean of 3 C. glabrata strains", "result": 1.40}, {"measurement": "Stasis total drug AUC0-168 h/MIC", "setting": "C. glabrata; Mean of 3 C. glabrata strains", "result": 174.78}, {"measurement": "Static dose", "setting": "C. glabrata; Mean of 3 C. glabrata strains", "result": 2.23, "unit": "mg/kg"}, {"measurement": "1 log kill 24 h Ave Free drug AUC/MIC", "setting": "C. glabrata; [4]", "result": 0.42}, {"measurement": "1 log kill dose", "setting": "C. glabrata; [4]", "result": 2.39, "unit": "mg/kg"}, {"measurement": "1 log kill free drug AUC0-168 h/MIC", "setting": "C. glabrata; [4]", "result": 2.94}, {"measurement": "1 log kill total drug AUC0-168 h/MIC", "setting": "C. glabrata; [4]", "result": 367.06}, {"measurement": "Stasis 24 h Ave free drug AUC/MIC", "setting": "C. glabrata; [4]", "result": 0.07}, {"measurement": "Stasis free drug AUC0-168 h/MIC", "setting": "C. glabrata; [4]", "result": 0.5}, {"measurement": "Stasis total drug AUC0-168 h/MIC", "setting": "C. glabrata; [4]", "result": 62.50}, {"measurement": "Static dose", "setting": "C. glabrata; [4]", "result": 0.34, "unit": "mg/kg"}, {"measurement": "kill at high doses", "setting": "C. glabrata; a number of strains, kidney burden, 168 h", "result": "> 2", "unit": "log10"}, {"measurement": "free AUC/MIC targets lower than the three comparator echinocandins", "setting": "C. glabrata; in vivo", "result": "> 10", "unit": "fold"}, {"measurement": "MEC90", "setting": "[3]", "result": 0.015, "unit": "µg/mL"}]}
